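GI50 is the concentration that inhibits growth by half. TGI: total growth inhibition.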
Assays:
Experiment in all cases: DTP human tumour cell line panel, 384-well format
HOP-92 NSCLC = system: HOP-92 NSCLC
A549 NSCLC = system: A549 NSCLC
K-562 leukemia = system: K-562 leukemia
NCI-H460 NSCLC = system: NCI-H460 NSCLC
IGROV1 ovarian = system: IGROV1 ovarian
SF-268 CNS = system: SF-268 CNS
SF-295 CNS = system: SF-295 CNS
BT-549 breast = system: BT-549 breast
SNB-19 CNS = system: SNB-19 CNS
HOP-62 NSCLC = system: HOP-62 NSCLC
NCI-H226 lung = system: NCI-H226 lung
ACHN renal = system: ACHN renal
LOX IMVI melanoma = system: LOX IMVI melanoma
T-47D breast = system: T-47D breast
COLO 205 colon = system: COLO 205 colon
SK-MEL-5 melanoma = system: SK-MEL-5 melanoma
HCC-2998 colon = system: HCC-2998 colon
RXF 393 renal = system: RXF 393 renal
HS 578T breast = system: HS 578T breast
EKVX NSCLC = system: EKVX NSCLC
TK-10 renal = system: TK-10 renal
SK-OV-3 ovarian = system: SK-OV-3 ovarian
OVCAR-8 ovarian = system: OVCAR-8 ovarian
PC-3 prostate = system: PC-3 prostate
786-0 renal = system: 786-0 renal
HL-60(TB) leukemia = system: HL-60(TB) leukemia
A498 renal = system: A498 renal
MOLT-4 leukemia = system: MOLT-4 leukemia

Which results are given for CC1(C)CN(c2cc(C(F)(F)F)cc3cncn23)CCC12NC(=O)NC2=O (stereo unspecified)?
GI50 (HOP-92 NSCLC): 26.1 µM; TGI (HOP-92 NSCLC): > 100 µM; GI50 (A549 NSCLC): 35.3 µM; TGI (A549 NSCLC): > 100 µM; GI50 (K-562 leukemia): 42.6 µM; TGI (K-562 leukemia): > 100 µM; GI50 (NCI-H460 NSCLC): 38.1 µM; TGI (NCI-H460 NSCLC): > 100 µM; GI50 (IGROV1 ovarian): 27.8 µM; TGI (IGROV1 ovarian): 75.8 µM; GI50 (SF-268 CNS): 26.9 µM; TGI (SF-268 CNS): > 100 µM; GI50 (SF-295 CNS): 24.8 µM; TGI (SF-295 CNS): 74.8 µM; GI50 (BT-549 breast): 19.8 µM; TGI (BT-549 breast): > 100 µM; GI50 (SNB-19 CNS): 55.7 µM; TGI (SNB-19 CNS): > 100 µM; GI50 (HOP-62 NSCLC): 28.3 µM; TGI (HOP-62 NSCLC): > 100 µM; GI50 (NCI-H226 lung): 26.6 µM; TGI (NCI-H226 lung): > 100 µM; GI50 (ACHN renal): 38.2 µM; TGI (ACHN renal): > 100 µM; GI50 (LOX IMVI melanoma): 32.5 µM; TGI (LOX IMVI melanoma): > 100 µM; GI50 (T-47D breast): 29.2 µM; TGI (T-47D breast): > 100 µM; GI50 (COLO 205 colon): 68.9 µM; TGI (COLO 205 colon): > 100 µM; GI50 (SK-MEL-5 melanoma): 33.5 µM; TGI (SK-MEL-5 melanoma): 95.7 µM; GI50 (HCC-2998 colon): 29.4 µM; TGI (HCC-2998 colon): 73.9 µM; GI50 (RXF 393 renal): 29.4 µM; TGI (RXF 393 renal): > 100 µM; GI50 (HS 578T breast): 12.9 µM; TGI (HS 578T breast): 35.6 µM; GI50 (EKVX NSCLC): 15.1 µM; TGI (EKVX NSCLC): 59.7 µM; GI50 (TK-10 renal): 35.5 µM; TGI (TK-10 renal): > 100 µM; GI50 (SK-OV-3 ovarian): 40.9 µM; TGI (SK-OV-3 ovarian): > 100 µM; GI50 (OVCAR-8 ovarian): 33.5 µM; TGI (OVCAR-8 ovarian): > 100 µM; GI50 (PC-3 prostate): 26.2 µM; TGI (PC-3 prostate): 99.2 µM; GI50 ([…]-0 renal): 35.1 µM; TGI (786-0 renal): > 100 µM; GI50 (HL-60(TB) leukemia): 14.5 µM; TGI (HL-60(TB) leukemia): 27.8 µM; GI50 (A498 renal): 26 µM; TGI (A498 renal): > 100 µM; GI50 (MOLT-4 leukemia): 12.3 µM; TGI (MOLT-4 leukemia): 25.1 µM

— PubChem BioAssay (NCI)
